Measurements taken from the CheMixHub viscosity set.

Assay: xn = mol fraction of the nth substance listed

C=C1CCC2CC1C2(C)C (centres undefined) + CCCCCC
298.15 K, 101.33 kPa
Settings	viscosity [mPa·s]
x2 = 0.0421	1.455
x2 = 0.0626	1.392
x2 = 0.2031	1.055
x2 = 0.2799	0.914
x2 = 0.3765	0.772
x2 = 0.4939	0.634
x2 = 0.5597	0.57
x2 = 0.6601	0.488
x2 = 0.7454	0.427
x2 = 0.8217	0.381
x2 = 0.8935	0.344
x2 = 0.9595	0.312

Cc1cccc(N)c1 + CCCCCC
viscosity [mPa·s], 101.33 kPa
Settings	x1 = 0.236	x1 = 0.396	x1 = 0.579	x1 = 0.787
295.15 K	0.46	0.69	0.95	1.54
305.15 K	0.39	0.55	0.77	1.25

CN1CCCN2CCCN=C12 + O
100 kPa
Settings	viscosity [mPa·s]
294.96 K, x1 = 0.5035	29.2
296.8 K, x1 = 0.1982	23.1
296.87 K, x1 = 0.1982	24.9
298.43 K, x1 = 0.5035	23.6
298.43 K, x1 = 0.798	11.2
303.69 K, x1 = 0.1982	15.8
308.29 K, x1 = 0.5035	14
308.31 K, x1 = 0.798	7.6
313.13 K, x1 = 0.1982	11.5
318.19 K, x1 = 0.798	5.6

CCCC[N+](CCCC)(CCCC)CCCC.[Br-] + CC(O)CO
101 kPa, x1 = 0.2
Settings	viscosity [mPa·s]
298.15 K	96.3
303.15 K	71.6
308.15 K	54.5
313.15 K	42.1
318.15 K	33.2
323.15 K	26.6

C=C1CCC2CC1C2(C)C (centres undefined) + c1ccccc1
viscosity [mPa·s], 101 kPa
Settings	x2 = 0.3052	x2 = 0.4296	x2 = 0.5395	x2 = 0.6373	x2 = 0.7249	x2 = 0.8039	x2 = 0.8754	x2 = 0.9405
303.15 K	1.187	0.998	0.867	0.759	0.691	0.646	0.614	0.593
308.15 K	1.106	0.936	0.807	0.71	0.655	0.619	0.587	0.566
313.15 K	1.022	0.866	0.749	0.658	0.614	0.583	0.556	0.537

Oc1cccc(O)c1O + CCCC[N+](CCCC)(CCCC)CCCC.[Br-]
101.3 kPa, x2 = 0.5
Settings	viscosity [mPa·s]
293.15 K	30000
298.15 K	18500
303.15 K	11000
308.15 K	6000
313.15 K	3250
318.15 K	1850
323.15 K	1200

Fc1c(F)c(F)c(F)c(F)c1F + Cc1cccc(C)n1
viscosity [mPa·s], 101.33 kPa
Settings	x2 = 0.091	x2 = 0.165	x2 = 0.229	x2 = 0.283	x2 = 0.497	x2 = 0.5	x2 = 0.712	x2 = 0.767	x2 = 0.832	x2 = 0.908
293.15 K	–	0.9415	0.9457	–	–	0.9333	0.8943	0.8824	0.8673	0.8549
298.15 K	–	0.869	0.8709	0.8665	0.8598	0.8584	0.8268	0.8175	0.8052	0.7928
308.15 K	–	0.7494	0.7485	0.7439	0.7372	0.736	0.7137	0.7072	0.6997	0.6916
318.15 K	0.6629	0.6586	0.6562	–	0.6401	0.6401	0.6252	0.6209	0.616	0.611

Oc1cccc2ccccc12 + CCO
viscosity [mPa·s], 101 kPa
Settings	x1 = 0.03	x1 = 0.06	x1 = 0.09	x1 = 0.12	x1 = 0.15
293.15 K	1.425	1.638	1.885	2.205	2.538
303.15 K	1.158	1.337	1.523	1.733	1.968
313.15 K	0.964	1.103	1.251	1.417	1.6
323.15 K	0.795	0.91	1.048	1.186	1.339

NCCN1CCNCC1 + NCCO.O=CO
viscosity [mPa·s], 100 kPa
Settings	x2 = 0.2317	x2 = 0.3408	x2 = 0.4457	x2 = 0.5468	x2 = 0.6441	x2 = 0.7379	x2 = 0.8283
298.15 K	130.1	250.1	379.1	466.9	462.4	357.8	264.9
303.15 K	80.27	188.7	266.6	322.5	323.3	259	196.6
308.15 K	–	136.2	191.3	230.5	234.9	192	149.1
313.15 K	–	102.4	141.7	170	173.6	146.6	115.8
318.15 K	–	78.62	106.8	127.9	131.8	113.7	91.74
323.15 K	–	61.55	83.63	98.95	102.1	89.85	74.36

CCCC[N+](CCCC)(CCCC)CCCC.[Br-] + OCCOCCOCCO
100 kPa, x1 = 0.2
Settings	viscosity [mPa·s]
303.15 K	279.6
313.15 K	176.9
323.15 K	101.6

Cc1cccnc1 + O
298.15 K, 101 kPa
Settings	viscosity [mPa·s]
x1 = 0.02104	1.202
x1 = 0.04558	1.604
x1 = 0.2966	3.291
x1 = 0.6032	1.972

C[C@H](O)C(=O)O + C[N+](C)(C)CCO.[Cl-]
101 kPa, x2 = 0.3333
Settings	viscosity [mPa·s]
303.15 K	374.3
313.15 K	187

Cc1cccc(N)c1 + CC1CCCCC1
303.15 K, 101.33 kPa
Settings	viscosity [mPa·s]
x1 = 0.204	0.79
x1 = 0.4	0.96
x1 = 0.6	1.25
x1 = 0.8	1.75

CCCCOCCOCCOCCCC + COC(=O)OC
viscosity [mPa·s], 101.3 kPa
Settings	298.15 K	308.15 K	318.15 K
x1 = 0.0176	0.616	0.546	0.488
x1 = 0.0289	0.635	0.562	0.498
x1 = 0.0543	0.678	0.599	0.523
x1 = 0.0894	0.743	0.65	0.56
x1 = 0.1574	0.862	0.747	0.634
x1 = 0.2414	1.012	0.867	0.726
x1 = 0.3274	1.169	0.991	0.82
x1 = 0.3389	1.189	1.005	0.83
x1 = 0.44	1.367	1.131	0.947
x1 = 0.5417	1.518	1.266	1.043
x1 = 0.636	1.653	1.377	1.125
x1 = 0.7193	1.745	1.451	1.182
x1 = 0.8605	1.934	1.606	1.289
x1 = 0.9421	2.047	1.677	1.351
